Experimental data taken from patent US8871767B2, “2-arylimidazo[1,2-B]pyridazine, 2-phenylimidazo[1,2-A]pyridine, and 2-phenylimidazo[1,2-A]pyrazine derivatives” (Hengrui (USA) Ltd., priority 2010, dated 2014).
Where two headings read alike, the source gives them in different places.

How the values were obtained:
[1] = system: Hedgehog pathway activation on 10T1/2/Smo#3 cells (C3H10T1/2 cells transfected with human Smoothened receptor); assay: Hedgehog pathway activation on 10T1/2/Smo#3 cells measured by ALP activity; assay type: cell-based; details: Mus musculus, C3H 10T1/2, 10T1/2/Smo#3 cells
Outline: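 Inhibition of alkaline phosphatase induction, read fluorometrically from 4-methylumbelliferyl phosphate conversion, gave IC50 values; CellTiter-Blue tracked viability in parallel. Cells were the human Smo-transfected 10T1/2/Smo#3 pool, stimulated by 10-20% hShh conditioned medium or the Smo agonist SAG (500 nM).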

[2] = system: Hedgehog pathway activation (GLi-luciferase reporter) in Shh Light II reporter cells; assay: Hedgehog pathway activation on Shh Light II reporter cells measured by luciferase activity; assay type: cell-based; details: Mus musculus, Shh Light II
Outline: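 Shh Light II reporter cells carrying a hedgehog-responsive GLi-luciferase reporter were stimulated either with 500 nM SAG, a direct Smoothened agonist, or with conditioned media containing human Sonic Hedgehog (hShh). Test compounds were evaluated for blocking this pathway activation, quantified by luciferase activity. Cell viability was monitored in parallel with the Celltiter-Blue® assay.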

[3] = measured by ALP activity, read-out: ALP (IC50, inhibition of Hedgehog pathway activation)
[4] = hShh activation, read-out: Shh (IC50, inhibition of Hedgehog pathway activation)
[5] = hShh activation, ALP activity, read-out: 10T1/2/Smo#3 ALP activity (hShh Activation)
[6] = SAG activation (500 nM SAG), read-out: Shh Light II luciferase activity (SAG activation)
[7] = hShh activation, read-out: Shh Light II luciferase activity (hShh activation)

Row | Structure (SMILES) | IC50 [1, 3] | IC50 [2, 4] | IC50 [1, 5] | IC50 [2, 6] | IC50 [2, 7]
1 | CC(C)(C)C(=O)Nc1cc(-c2cn3nc(C#N)ccc3n2)ccc1C(F)(F)F [Example 173, N-(5-(6-cyanoimidazo[1,2-b]pyridazin-2-yl)-2-(trifluoromethyl)phenyl)pivalamide] | 4.43 µM | 4.4 µM | 3 to 30 µM | 3 to 30 µM | 3 to 30 µM
2 | CC(C)(C)C(=O)Nc1cc(-c2cn3nc(-c4ccc[nH]4)ccc3n2)ccc1C(F)(F)F [Example 179, N-(5-(6-(1H-pyrrol-2-yl)imidazo[1,2-b]pyridazin-2-yl)-2-(trifluoromethyl)phenyl)pivalamide] | 1.44 µM | 0.454 µM | – | – | –
3 | CC(C)(C)C(=O)Nc1cc(-c2cn3nc(C(N)=O)ccc3n2)ccc1C(F)(F)F [Example 180, 2-(3-pivalamido-4-(trifluoromethyl)phenyl)imidazo[1,2-b]pyridazine-6-carboxamide] | 5.73 µM | 3.88 µM | 3 to 30 µM | 3 to 30 µM | 3 to 30 µM
4 | CC(C)Oc1ccc2nc(-c3ccc(C(F)(F)F)c(NC(=O)C(C)(C)C)c3)cn2n1 [Example 181, N-(5-(6-isopropoxyimidazo[1,2-b]pyridazin-2-yl)-2-(trifluoromethyl)phenyl)pivalamide] | 1.07 µM | 0.245 µM | – | – | –
5 | CC(C)(C)C(=O)Nc1cc(-c2cn3nc(OC4CCC4)ccc3n2)ccc1C(F)(F)F [Example 182, N-(5-(6-cyclobutoxyimidazo[1,2-b]pyridazin-2-yl)-2-(trifluoromethyl)phenyl)pivalamide] | 1.85 µM | 1.74 µM | – | – | –
6 | CC(C)(C)C(=O)Nc1cc(-c2cn3nc(-c4ccc(F)cc4F)ccc3n2)ccc1C(F)(F)F [Example 183, N-(5-(6-(2,4-difluorophenyl)imidazo[1,2-b]pyridazin-2-yl)-2-(trifluoromethyl)phenyl)pivalamide] | 0.995 µM | 0.327 µM | – | – | –
7 | CCOc1ccc2nc(-c3ccc(C(F)(F)F)c(NC(=O)C(C)C)c3)cn2n1 [Example 185, N-(5-(6-ethoxyimidazo[1,2-b]pyridazin-2-yl)-2-(trifluoromethyl)phenyl)isobutyramide] | 1.67 µM | 1.78 µM | – | – | –
8 | CCOc1ccc2nc(-c3ccc(C(F)(F)F)c(NC(=O)C4CC4)c3)cn2n1 [Example 186, N-(5-(6-ethoxyimidazo[1,2-b]pyridazin-2-yl)-2-(trifluoromethyl)phenyl)cyclopropanecarboxamide] | 8.38 µM | > 10 µM | – | – | –
9 | CCOc1ccc2nc(-c3ccc(C(F)(F)F)c(NC(=O)CC(C)(C)C)c3)cn2n1 [Example 187, N-(5-(6-ethoxyimidazo[1,2-b]pyridazin-2-yl)-2-(trifluoromethyl)phenyl)-3,3-dimethylbutanamide] | > 10 µM | > 10 µM | – | – | –
10 | CCOc1ccc2nc(-c3ccc(C(F)(F)F)c(NC(=O)C(C)(C)C(F)(F)F)c3)cn2n1 [Example 188, N-(5-(6-ethoxyimidazo[1,2-b]pyridazin-2-yl)-2-(trifluoromethyl)phenyl)-3,3,3-trifluoro-2,2-dimethylpropanamide] | 0.875 µM | 1.4 µM | – | – | –
11 | CCOc1ccc2nc(-c3ccc(C(F)(F)F)c(NC(=O)C4CCCC4)c3)cn2n1 [Example 189, N-(5-(6-ethoxyimidazo[1,2-b]pyridazin-2-yl)-2-(trifluoromethyl)phenyl)cyclopentanecarboxamide] | 2.1 µM | 2 µM | – | – | –
12 | CCOc1ccc2nc(-c3ccc(C(F)(F)F)c(NC(=O)C4CCCCC4)c3)cn2n1 [Example 190, N-(5-(6-ethoxyimidazo[1,2-b]pyridazin-2-yl)-2-(trifluoromethyl)phenyl)cyclohexanecarboxamide] | 5.25 µM | > 10 µM | – | – | –
13 | CCOc1ccc2nc(-c3ccc(C(F)(F)F)c(NC(=O)c4ccccc4)c3)cn2n1 [Example 191, N-(5-(6-ethoxyimidazo[1,2-b]pyridazin-2-yl)-2-(trifluoromethyl)phenyl)benzamide] | 1.57 µM | 0.579 µM | – | – | –
14 | CCOc1ccc2nc(-c3ccc(C(F)(F)F)c(NC(=O)c4ccccc4F)c3)cn2n1 [Example 192, N-(5-(6-ethoxyimidazo[1,2-b]pyridazin-2-yl)-2-(trifluoromethyl)phenyl)-2-fluorobenzamide] | 4.76 µM | 1.58 µM | – | – | –
15 | CCOc1ccc2nc(-c3ccc(C(F)(F)F)c(NC(=O)c4cccnc4)c3)cn2n1 [Example 193, N-(5-(6-ethoxyimidazo[1,2-b]pyridazin-2-yl)-2-(trifluoromethyl)phenyl)nicotinamide] | 2.34 µM | 7.76 µM | – | – | –
16 | CCOc1ccc2nc(-c3ccc(C(F)(F)F)c(NC(=O)Cc4ccccc4)c3)cn2n1 [Example 194, N-(5-(6-ethoxyimidazo[1,2-b]pyridazin-2-yl)-2-(trifluoromethyl)phenyl)-2-phenylacetamide] | > 10 µM | 1.75 µM | – | – | –
17 | CC(C)(C)C(=O)Nc1cc(-c2cn3nc(Oc4ccc(F)cc4)ccc3n2)ccc1C(F)(F)F [Example 196, N-(5-(6-(4-fluorophenoxy)imidazo[1,2-b]pyridazin-2-yl)-2-(trifluoromethyl)phenyl)pivalamide] | 1.62 µM | 0.726 µM | 0.3 to 3 µM | 3 to 30 µM | 0.3 to 3 µM
18 | COc1ccccc1Oc1ccc2nc(-c3ccc(C(F)(F)F)c(NC(=O)C(C)(C)C)c3)cn2n1 [Example 197, N-(5-(6-(2-methoxyphenoxy)imidazo[1,2-b]pyridazin-2-yl)-2-(trifluoromethyl)phenyl)pivalamide] | 0.875 µM | 0.357 µM | – | – | –
19 | Cc1c(Cl)nn2cc(-c3ccc(C(F)(F)F)c(NC(=O)C(C)(C)C)c3)nc2c1C [Example 198, N-(5-(6-chloro-7,8-dimethylimidazo[1,2-b]pyridazin-2-yl)-2-(trifluoromethyl)phenyl)pivalamide] | 1.97 µM | 1.68 µM | 0.3 to 3 µM | 3 to 30 µM | 0.3 to 3 µM

More lines, in order of falling IC50 [1, 3], values ahead:

Row | IC50 [1, 3] | IC50 [2, 4] | IC50 [1, 5] | IC50 [2, 6] | IC50 [2, 7] | Structure (SMILES)
20 | 0.869 µM | 0.402 µM | – | – | – | CCOc1nn2cc(-c3ccc(C(F)(F)F)c(NC(=O)C(C)(C)C)c3)nc2c(C)c1C [Example 201, N-(5-(6-ethoxy-7,8-dimethylimidazo[1,2-b]pyridazin-2-yl)-2-(trifluoromethyl)phenyl)pivalamide]
21 | 0.718 µM | 0.267 µM | – | – | – | CC(C)(C)C(=O)Nc1cc(-c2cn3nc(Oc4ccccc4F)ccc3n2)ccc1C(F)(F)F [Example 195, N-(5-(6-(2-fluorophenoxy)imidazo[1,2-b]pyridazin-2-yl)-2-(trifluoromethyl)phenyl)pivalamide]
22 | 0.607 µM | 0.468 µM | – | – | – | CC(C)(C)OC(=O)n1cccc1-c1ccc2nc(-c3ccc(C(F)(F)F)c(NC(=O)C(C)(C)C)c3)cn2n1 [Example 178, tert-butyl 2-(2-(3-pivalamido-4-(trifluoromethyl)phenyl)imidazo[1,2-b]pyridazin-6-yl)-1H-pyrrole-1-carboxylate]
23 | 0.513 µM | 0.799 µM | – | – | – | COc1ncccc1-c1ccc2nc(-c3ccc(C(F)(F)F)c(NC(=O)C(C)(C)C)c3)cn2n1 [Example 175, N-(5-(6-(2-methoxypyridin-3-yl)imidazo[1,2-b]pyridazin-2-yl)-2-(trifluoromethyl)phenyl)pivalamide]
24 | 0.403 µM | 0.936 µM | – | – | – | COc1ccccc1-c1ccc2nc(-c3ccc(C(F)(F)F)c(NC(=O)C(C)(C)C)c3)cn2n1 [Example 172, N-(5-(6-(2-methoxyphenyl)imidazo[1,2-b]pyridazin-2-yl)-2-(trifluoromethyl)phenyl)pivalamide]
25 | 0.284 µM | 0.281 µM | – | – | – | Cc1c(-c2ccccc2F)nn2cc(-c3ccc(C(F)(F)F)c(NC(=O)C(C)(C)C)c3)nc2c1C [Example 200, N-(5-(6-(2-fluorophenyl)-7,8-dimethylimidazo[1,2-b]pyridazin-2-yl)-2-(trifluoromethyl)phenyl)pivalamide]
26 | 0.236 µM | 0.357 µM | – | – | – | CC(C)(C)C(=O)Nc1cc(-c2cn3nc(-c4ccncc4F)ccc3n2)ccc1C(F)(F)F [Example 177, N-(5-(6-(3-fluoropyridin-4-yl)imidazo[1,2-b]pyridazin-2-yl)-2-(trifluoromethyl)phenyl)pivalamide]
27 | 0.215 µM | 0.689 µM | – | – | – | CC(C)(C)C(=O)Nc1cc(-c2cn3nc(-c4ccc(F)nc4)ccc3n2)ccc1C(F)(F)F [Example 174, N-(5-(6-(6-fluoropyridin-3-yl)imidazo[1,2-b]pyridazin-2-yl)-2-(trifluoromethyl)phenyl)pivalamide]
28 | 0.111 µM | 0.337 µM | – | – | – | Cc1c(-c2cccnc2F)nn2cc(-c3ccc(C(F)(F)F)c(NC(=O)C(C)(C)C)c3)nc2c1C [Example 199, N-(5-(6-(2-fluoropyridin-3-yl)-7,8-dimethylimidazo[1,2-b]pyridazin-2-yl)-2-(trifluoromethyl)phenyl)pivalamide]
29 | 0.097 µM | 0.079 µM | – | – | – | CC(C)(C)C(=O)Nc1cc(-c2cn3nc(-c4cccnc4F)ccc3n2)ccc1C(F)(F)F [Example 176, N-(5-(6-(2-fluoropyridin-3-yl)imidazo[1,2-b]pyridazin-2-yl)-2-(trifluoromethyl)phenyl)pivalamide]
30 | 0.061 µM | 0.191 µM | – | – | – | CC(C)(C)C(=O)Nc1cc(-c2cn3nc(-c4c(F)cccc4F)ccc3n2)ccc1C(F)(F)F [Example 184, N-(5-(6-(2,6-difluorophenyl)imidazo[1,2-b]pyridazin-2-yl)-2-(trifluoromethyl)phenyl)pivalamide]
